“And” between values parts separate entries of the source, which are not always exact repeats. Equal values may be shown once. “Also recorded” adds a separate entry of the source. Read-outs that look alike come from different tables or passages of the source.
Experiments:
human MRGPRX2 = molecular target: T1, human MRGPRX2 (Homo sapiens, UniProt Q96LB1); test: Intracellular Ca2+ mobilisation assay in HEK293 cells transiently transfected with human MRGPRX2; assay type: cell-based; conditions: for Activation of human MRGPRX2 (increase in intracellular Ca2+): HEK293 cells transfected with human MRGPRX2, fluoroquinolones up to 1000 μg/mL; for EC50: human MRGPRX2-expressing HEK293 cells, mean ± SD of three independent experiments, read-out: EC50 on changes in intracellular Ca2+ levels, Human MRGPRX2 (converted)
T1 construct: expressed in transfected cells; host or cells: HEK293 (JCRB Cell Bank), transient, pcDNA3.1(+) vector
T1 sequence (Q96LB1 1-330): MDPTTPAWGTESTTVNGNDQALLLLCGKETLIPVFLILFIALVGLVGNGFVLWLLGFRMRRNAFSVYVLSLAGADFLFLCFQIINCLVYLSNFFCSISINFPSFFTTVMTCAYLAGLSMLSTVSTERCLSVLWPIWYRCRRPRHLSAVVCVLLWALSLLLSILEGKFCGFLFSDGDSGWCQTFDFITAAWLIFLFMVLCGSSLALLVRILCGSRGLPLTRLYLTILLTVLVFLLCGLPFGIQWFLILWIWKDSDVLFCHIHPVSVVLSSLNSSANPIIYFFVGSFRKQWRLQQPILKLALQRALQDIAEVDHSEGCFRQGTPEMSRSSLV
Method: (§1) HEK293 cells obtained from the JCRB Cell Bank (Osaka, Japan) were transfected transiently with dog MRGPRD, MRGPRF, MRGPRG, or MRGPRX2 or human MRGPRX2. Lipofectamine 2000 Reagent (Thermo Fisher Scientific Inc.) and pcDNA3.1(+) vector containing each gene were diluted and mixed using Opti-MEM I Reduced Serum Medium (Thermo Fisher Scientific Inc.) to prepare lipid-DNA complexes (final concentrations: lipofectamine 2.5 μL/mL and DNA 2,500 ng/mL). HEK293 cells were detached using TrypLE™ Express (Thermo Fisher Scientific Inc.) and prepared to 7 × 10^5 cells/mL with the lipid-DNA complex. Thereafter, 25 μL cells (1.75 × 10^4 cells/well) were seeded per well in 384-well flat-bottomed plates (Corning Incorporated, Corning, NY, USA) and incubated overnight at 37 °C under 5% CO2 conditions. Cells treated with plasmid-free lipid solution were used as negative control (non-transfected cells).
Test articles were dissolved in HBSS (pH 7.4, Thermo Fisher Scientific Inc., Waltham, MA, USA) supplemented with 20 mM HEPES (Sigma-Aldrich Co. LLC.) and 0.05 vol% bovine serum albumin (BSA, Sigma-Aldrich Co. LLC.). […] Intracellular Ca^2+ levels were analysed using Calcium Kit II-iCellux (Dojindo Molecular Technologies, Inc., Kumamoto, Japan), according to the manufacturer's instructions. HEK293 cells (1.75 × 10^4 cells/well) were loaded with 1.25 mM probenecid and calcium probe for 45 min at 25 °C. Changes in fluorescence intensities before and after addition of the test articles were measured over time using FLIPR Tetra (Molecular Devices, LLC., Sunnyvale, CA, USA) with excitation at 470–495 nm and emission at 515–575 nm. The test articles were added at 10 s after beginning the measurements. Samples were measured in duplicate or quadruplicate. The data were analysed using ScreenWorks (Molecular Devices, LLC. Version 3.2.0.14) to determine the difference between maximal and minimal fluorescence intensity (max–min).
(§2) Data represent the mean ± SD of three animals for distribution study or three independent assays for Ca^2+ mobilisation. EC50 of each test article used in the Ca^2+ mobilisation assay was calculated using the sigmoid Emax model. These analyses were performed by using the SAS System Release 8.2 software (SAS Institute Inc., Cary, NC, USA).

dog MRGPRX2 = dog MRGPRX2 (Canis lupus familiaris, UniProt A0A4Y5P885); test: Intracellular Ca2+ mobilisation assay in HEK293 cells transiently transfected with dog MRGPRX2; assay type: cell-based; conditions: for Activation of dog MRGPRX2 (increase in intracellular Ca2+): HEK293 cells transfected with dog MRGPRX2, fluoroquinolones up to 1000 μg/mL; for EC50: mean ± SD of three independent experiments; for Difference in EC50 values between dog MRGPRX2 and human MRGPRX2: EC50 lower in dog MRGPRX2-expressing cells than in human MRGPRX2-expressing cells
Method: as §1
Test articles were dissolved in HBSS (pH 7.4, Thermo Fisher Scientific Inc., Waltham, MA, USA) supplemented with 20 mM HEPES (Sigma-Aldrich Co. LLC.) and 0.05 vol% bovine serum albumin (BSA, Sigma-Aldrich Co. LLC.). The highest concentration of the fluoroquinolones was set at 1000 μg/mL based on previous reports at which the test substances induced marked intracellular Ca^2+ mobilisation in human MRGPRX2-expressing HEK293 cells[11] or caused histamine release in rat or human mast cells[16],[25],[36]. Intracellular Ca^2+ levels were analysed using Calcium Kit II-iCellux (Dojindo Molecular Technologies, Inc., Kumamoto, Japan), according to the manufacturer's instructions. HEK293 cells (1.75 × 10^4 cells/well) were loaded with 1.25 mM probenecid and calcium probe for 45 min at 25 °C. Changes in fluorescence intensities before and after addition of the test articles were measured over time using FLIPR Tetra (Molecular Devices, LLC., Sunnyvale, CA, USA) with excitation at 470–495 nm and emission at 515–575 nm. The test articles were added at 10 s after beginning the measurements. Samples were measured in duplicate or quadruplicate. The data were analysed using ScreenWorks (Molecular Devices, LLC. Version 3.2.0.14) to determine the difference between maximal and minimal fluorescence intensity (max–min).
as §2

[1] = tested on: non-transfected HEK293 cells; test: Intracellular Ca2+ levels in non-transfected HEK293 cells (negative control cells); assay type: cell-based, human; conditions: 1,000 μg/mL; data excluded from the analysis
Method: as §1, with “Thereafter, 25 μL cells (1.75 × 10^4 cells/well) were seeded per well in 384-well flat-bottomed plates (Corning Incorporated, Corning, NY, USA) and incubated overnight at 37 °C under 5% CO2 conditions. Cells treated with plasmid-free lipid solution were used as negative control (non-transfected cells).” left out
Test articles were dissolved in HBSS (pH 7.4, Thermo Fisher Scientific Inc., Waltham, MA, USA) supplemented with 20 mM HEPES (Sigma-Aldrich Co. LLC.) and 0.05 vol% bovine serum albumin (BSA, Sigma-Aldrich Co. LLC.). […] Intracellular Ca^2+ levels were analysed using Calcium Kit II-iCellux (Dojindo Molecular Technologies, Inc., Kumamoto, Japan), according to the manufacturer's instructions. […] Changes in fluorescence intensities before and after addition of the test articles were measured over time using FLIPR Tetra (Molecular Devices, LLC., Sunnyvale, CA, USA) with excitation at 470–495 nm and emission at 515–575 nm. […] Samples were measured in duplicate or quadruplicate. […]

mouse Mrgprb2 = tested on: mouse Mrgprb2; set-up: method as in PMID 25517090; conditions: cited from earlier work
[2] = set-up: method as in PMID 9635500; conditions: cited from earlier work
[3] = tested on: dispersed canine skin mast cells; set-up: method as in PMID 10864147; conditions: cited from earlier work
[4] = EC50 on changes in intracellular Ca2+ levels, Dog MRGPRX2, dog MRGPRX2-expressing HEK293 cells

Sequence of dog MRGPRX2 (A0A4Y5P885 entry or part of it): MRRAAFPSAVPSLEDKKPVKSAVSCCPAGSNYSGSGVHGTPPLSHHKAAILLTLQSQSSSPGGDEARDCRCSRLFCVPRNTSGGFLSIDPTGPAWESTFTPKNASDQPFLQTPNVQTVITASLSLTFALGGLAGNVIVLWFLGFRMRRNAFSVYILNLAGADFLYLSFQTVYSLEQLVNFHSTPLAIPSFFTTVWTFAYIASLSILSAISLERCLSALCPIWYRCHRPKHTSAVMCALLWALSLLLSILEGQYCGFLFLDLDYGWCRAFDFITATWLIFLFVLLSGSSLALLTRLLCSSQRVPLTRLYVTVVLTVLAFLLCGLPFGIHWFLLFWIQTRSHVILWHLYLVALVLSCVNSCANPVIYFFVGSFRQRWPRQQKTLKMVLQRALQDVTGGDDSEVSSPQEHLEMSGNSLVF

| EC50 (dog MRGPRX2; dog MRGPRX2-expressing HEK293 cells, read-out: EC50 on changes in intracellular Ca2+ levels, Dog MRGPRX2 (converted)) | Compound | Activation of human MRGPRX2 (increase in intracellular Ca2+) (human MRGPRX2) | EC50 (human MRGPRX2) | Activation of dog MRGPRX2 (increase in intracellular Ca2+) (dog MRGPRX2) | Difference in EC50 values between dog MRGPRX2 and human MRGPRX2 (dog MRGPRX2) | EC50 (dog MRGPRX2; [4]) | Nonspecific increase in intracellular Ca2+ levels in non-transfected cells [1] | EC50 in mouse Mrgprb2-expressing cells compared to human MRGPRX2-expressing cells (mouse Mrgprb2; higher in mouse) | EC50 (mouse Mrgprb2; read-out: EC50 in mouse Mrgprb2-expressing cells) | Histamine release in dogs [2] | Concentration inducing histamine release from dispersed canine skin mast cells [3] |
| --- | --- | --- | --- | --- | --- | --- | --- | --- | --- | --- | --- |
| 210 µM | COc1c(N2CCNC(C)C2)c(F)cc2c(=O)c(C(=O)O)cn(C3CC3)c12 (centres unmarked) [GFLX, gatifloxacin] | concentration-dependent | 529 µM | responded | – | – | – | – | – | – | – |
| – | O=C(O)c1cn(C2CC2)c2cc(N3CCNCC3)c(F)cc2c1=O [CPFX, ciprofloxacin] | concentration-dependent | – | responded | ca. sevenfold | ~45.3 µM and 43.8 µM | induced nonspecific increase | – | – | – | – |
| – | substance P | – | – | – | – | – | – | 360 fold | 54 µM | – | – |
| – | C[C@H]1COc2c(C3(N)CC3)c(F)cc3c(=O)c(C(=O)O)cn1c23 [PZFX, pazufloxacin] | did not activate | – | did not activate | – | – | – | – | – | does not induce histamine release; also recorded: does not cause histamine release | – |
| – | C[C@H]1COc2c(N3CCN(C)CC3)c(F)cc3c(=O)c(C(=O)O)cn1c23 [LVFX, levofloxacin] | concentration-dependent | 1060 µM | responded | ca. sevenfold | ~166 µM and 163 µM | – | – | – | – | ≥ 30 µg/mL |

Reference: paper PMC7527510, “Identification of the dog orthologue of human MAS-related G protein coupled receptor X2 (MRGPRX2) essential for drug-induced pseudo-allergic reactions” (Scientific Reports, 2020)
